Consider 27 compounds from US10173991B2, “Sulfone amide linked benzothiazole inhibitors of endothelial lipase” (BRISTOL-MYERS SQUIBB COMPANY, priority 2014, dated 2019).

Sequence of Endothelial lipase (EL) (Q9Y5X9 21-500): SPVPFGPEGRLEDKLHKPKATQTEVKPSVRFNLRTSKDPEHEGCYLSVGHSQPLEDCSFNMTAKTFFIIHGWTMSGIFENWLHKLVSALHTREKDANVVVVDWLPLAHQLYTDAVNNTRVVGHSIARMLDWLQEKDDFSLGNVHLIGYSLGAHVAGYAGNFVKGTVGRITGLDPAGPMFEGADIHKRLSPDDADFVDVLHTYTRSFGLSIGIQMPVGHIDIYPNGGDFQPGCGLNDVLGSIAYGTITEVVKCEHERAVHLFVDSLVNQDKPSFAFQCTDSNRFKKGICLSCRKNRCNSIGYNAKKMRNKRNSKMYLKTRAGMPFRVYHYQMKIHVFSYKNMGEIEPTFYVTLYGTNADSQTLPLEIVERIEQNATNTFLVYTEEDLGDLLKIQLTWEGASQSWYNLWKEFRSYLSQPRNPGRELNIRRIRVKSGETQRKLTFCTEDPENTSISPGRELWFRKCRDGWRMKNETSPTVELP

One assay addresses Endothelial lipase (EL) (Homo sapiens (Human), UniProt Q9Y5X9). Kind of assay: Endothelial lipase (EL) enzymatic assay with fluorescent substrate A10070 in DMPG vesicles. The assay is classed as biochemical.
Conditions: not given
In short, it runs like this: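 Compounds were preincubated with enzyme for 30 min at 37° C before FRET-substrate vesicles (A10070 in DMPG, 0.11 mole fraction) were added. Reaction rates were obtained from the 300–900 sec slope of fluorescence at 490/530 nm.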
Take `COCCS(=O)(=O)C(C(=O)NCC(=O)NC1CC1)c1nc2cc(-c3cncnc3)ccc2s1` (stereo not drawn) [Example 335, N-[(cyclopropyl-carbamoyl)methyl]-2-(2-methoxyethane-sulfonyl)-2-[5-(pyrimidin-5-yl)-1,3-benzothiazol-2-yl]acetamide]: 16 nM corresponded to half-maximal inhibition (IC50).
Still for that read-out and setting: under `Cc1nn(-c2ccc(-c3cc4sc(C(C(=O)NCC(=O)NC5CC5)S(=O)(=O)CCC(F)(F)F)nc4cc3F)cc2)c(N)c1C#N` (stereo not drawn) [Example 587, 2-{6-[4-(5-amino-4-cyano-3-methyl-1H-pyrazol-1-yl)phenyl]-5-fluoro-1,3-benzothiazol-2-yl}-N-[(cyclopropyl-carbamoyl)methyl]-2-(3,3,3-trifluoropropane-sulfonyl)acetamide] stands 3 nM; under `COCCS(=O)(=O)C(C(=O)NCC(=O)NC1CC1)c1nc2cc(-c3ccc(F)nc3)c(C)cc2s1` (stereo not drawn) [Example 182, N-[(cyclopropyl-carbamoyl)methyl]-2-[5-(6-fluoropyridin-3-yl)-6-methyl-1,3-benzothiazol-2-yl]-2-(2-methoxyethane-sulfonyl) acetamide], 21 nM.
On the same count and under the same terms, the result for `COCCS(=O)(=O)C(C(=O)NCC(=O)NC1CC1)c1nc2cc(F)c(-c3ccc(NC(=O)OC)cc3C)cc2s1` (stereo not drawn) [Example 35, methyl N-{4-[2-({[(cyclopropyl-carbamoyl)methyl]carbamoyl}(2-methoxyethane-sulfonyl)methyl)-5-fluoro-1,3-benzothiazol-6-yl]-3-methylphenyl} carbamate] reads 8 nM.
Still for that read-out and setting: the result for `O=C(CNC(=O)C(c1nc2ccc(-c3ccc(C(=O)N4CCOCC4)cc3)cc2s1)S(=O)(=O)Cc1ccc(F)cc1)NC1CC1` (stereo not drawn) [Example 213, N-[(cyclopropyl-carbamoyl)methyl]-2-[(4-fluorophenyl)methanesulfonyl]-2-{6-[4-(morpholine-4-carbonyl)phenyl]-1,3-benzothiazol-2-yl}acetamide] reads 15 nM; that for `COCCNC(=O)CNC(=O)C(c1nc2ccc(-c3ccc(F)nc3)cc2s1)S(=O)(=O)c1ccc(F)cc1` (stereo not drawn) [Example 461, 2-(4-fluorobenzene-sulfonyl)-2-[6-(6-fluoropyridin-3-yl)-1,3-benzothiazol-2-yl]-N-{[(2-methoxyethyl)carbamoyl]methyl} acetamide], 150 nM; that for `COC(=O)Nc1ccc(-c2cc3sc(C(C(=O)NCC(=O)NC4CC4)S(=O)(=O)CCN4CCOCC4)nc3cc2F)cc1` (stereo not drawn) [Example 422, methyl N-{4-[2-({[(cyclopropyl-carbamoyl)methyl]carbamoyl}[2-(morpholin-4-yl)ethanesulfonyl]methyl)-5-fluoro-1,3-benzothiazol-6-yl]phenyl} carbamate], 3 nM.
The compound `O=C(CNC(=O)C(c1nc2ccc(-c3ccc(F)nc3)cc2s1)S(=O)(=O)Cc1ccccc1F)NC1CC1` (stereo not drawn) [Example 18, N-[(cyclopropyl-carbamoyl)methyl]-2-[(2-fluorophenyl)methanesulfonyl]-2-[6-(6-fluoropyridin-3-yl)-1,3-benzothiazol-2-yl]acetamide] yielded a half-inhibitory concentration (IC50) of 253 nM.
With `Cc1cc(-c2cc3nc(C(C(=O)NCC(=O)NC4CC4)S(C)(=O)=O)sc3cc2F)cnn1` (stereo not drawn) [Example 361, N-[(cyclopropyl-carbamoyl)methyl]-2-[6-fluoro-5-(6-methylpyridazin-4-yl)-1,3-benzothiazol-2-yl]-2-methanesulfonyl-acetamide], inhibition was half-maximal at 26 nM (IC50).
On the same count and under the same terms, the result for `CS(=O)(=O)C(C(=O)NCC(=O)NC1CC1)c1nc2cc(F)c(-c3ccc(-n4cccn4)cc3)cc2s1` (stereo not drawn) [Example 375, N-[(cyclopropyl-carbamoyl)methyl]-2-{5-fluoro-6-[4-(1H-pyrazol-1-yl)phenyl]-1,3-benzothiazol-2-yl}-2-methanesulfonyl-acetamide] reads 2 nM; that for `COCCS(=O)(=O)C(C(=O)NCC(=O)NC1CC1)c1nc2cc(-c3cccc(C(=O)N(C)C)c3)ccc2s1` (stereo not drawn) [Example 398, 3-[2-({[(cyclopropyl-carbamoyl)methyl]carbamoyl}(2-methoxyethane-sulfonyl)methyl)-1,3-benzothiazol-5-yl]-N,N-dimethyl-benzamide], 38 nM; that for `COCCS(=O)(=O)C(C(=O)NCC(=O)NC1CC1)c1nc2cc(-c3ccc4c(c3)C(=O)NC4)c(F)cc2s1` (stereo not drawn) [Example 350, N-[(cyclopropyl-carbamoyl)methyl]-2-[6-fluoro-5-(3-oxo-2,3-dihydro-1H-isoindol-5-yl)-1,3-benzothiazol-2-yl]-2-(2-methoxyethane-sulfonyl)acetamide], 18 nM.
Same read-out and setting: under `O=C(CNC(=O)C(c1nc2cc(F)c(-c3ccc(NC(=O)OCc4ccccc4)cc3)cc2s1)S(=O)(=O)CCN1CCOCC1)NC1CC1` (stereo not drawn) [Example 423, benzyl N-{4-[2-({[(cyclopropyl-carbamoyl)methyl]carbamoyl}[2-(morpholin-4-yl)ethanesulfonyl]methyl)-5-fluoro-1,3-benzothiazol-6-yl]phenyl} carbamate] stands 1 nM.
Still for that read-out and setting: under `Cc1cc(-c2cc3sc(C(C(=O)NCC(=O)NC4CC4)S(C)(=O)=O)nc3cc2OC(F)F)cnn1` (stereo not drawn) [Example 604, N-[(cyclopropyl-carbamoyl)methyl]-2-[5-(difluoromethoxy)-6-(6-methylpyridazin-4-yl)-1,3-benzothiazol-2-yl]-2-methanesulfonyl-acetamide] stands 27 nM; under `COCCS(=O)(=O)C(C(=O)NCC(=O)NC1CC1)c1nc2ccc(-c3cncc(Cl)c3)cc2s1` (stereo not drawn) [Example 304], 52 nM.
In turn, `CC(C)n1cc(-c2cc3sc(C(C(=O)NCC(=O)NC4CC4)S(=O)(=O)C(C)C)nc3cc2F)ccc1=O` (stereo not drawn) [Example 22, N-[(cyclopropyl-carbamoyl)methyl]-2-{5-fluoro-6-[6-oxo-1-(propan-2-yl)-1,6-dihydropyridin-3-yl]-1,3-benzothiazol-2-yl}-2-(propane-2-sulfonyl) acetamide] yielded an IC50 of 37 nM. This IC50 and that of the compound before are within 1.5-fold of each other.
Same read-out and setting: the result for `O=C(CNC(=O)C(c1nc2cc(F)c(-c3ccc(-n4cccn4)cc3)cc2s1)S(=O)(=O)CCC(F)(F)F)NC1CC1` (stereo not drawn) [Example 138, N-[(cyclopropyl-carbamoyl)methyl]-2-{5-fluoro-6-[4-(1H-pyrazol-1-yl)phenyl]-1,3-benzothiazol-2-yl}-2-(3,3,3-trifluoropropane-sulfonyl) acetamide] reads 6 nM; that for `CS(=O)(=O)C(C(=O)NCC(=O)NC1CC1)c1nc2cc(F)c(-c3ccc(F)nc3)cc2s1` (stereo not drawn) [Example 190, N-[(cyclopropyl-carbamoyl)methyl]-2-[5-fluoro-6-(6-fluoropyridin-3-yl)-1,3-benzothiazol-2-yl]-2-methanesulfonyl-acetamide], 16 nM; that for `COCCS(=O)(=O)C(C(=O)NCC(=O)NC1CC1)c1nc2cc(F)c(-c3ccc(N(C)C(=O)OC)cc3)cc2s1` (stereo not drawn) [Example 32, methyl N-{4-[2-({[(cyclopropyl-carbamoyl)methyl]carbamoyl}(2-methoxyethane-sulfonyl)methyl)-5-fluoro-1,3-benzothiazol-6-yl]phenyl}-N-methylcarbamate], 6 nM.
On the same count and under the same terms, under `CS(=O)(=O)C(C(=O)NCC(=O)NC1CC1)c1nc2cc(F)c(-c3ccnc(F)c3)cc2s1` (stereo not drawn) [Example 321, N-[(cyclopropyl-carbamoyl)methyl]-2-[5-fluoro-6-(2-fluoropyridin-4-yl)-1,3-benzothiazol-2-yl]-2-methanesulfonyl-acetamide] stands 14 nM.
On the same count and under the same terms, under `O=C(CNC(=O)C(c1nc2ccc(-c3ccc4c(c3)CNC4=O)cc2s1)S(=O)(=O)c1cccnc1)NC1CC1` (stereo not drawn) [Example 468, N-[(cyclopropyl-carbamoyl)methyl]-2-[6-(1-oxo-2,3-dihydro-1H-isoindol-5-yl)-1,3-benzothiazol-2-yl]-2-(pyridine-3-sulfonyl) acetamide] stands 6 nM.
The compound `COC(=O)Nc1cccc(-c2cc3sc(C(C(=O)NCC(=O)NC4CC4)S(C)(=O)=O)nc3cc2F)c1` (stereo not drawn) [Example 117, methyl N-{3-[2-({[(cyclopropyl-carbamoyl)methyl]carbamoyl} (methanesulfonyl)methyl)-5-fluoro-1,3-benzothiazol-6-yl]phenyl} carbamate] gave an IC50 of 4 nM.
Still for that read-out and setting: under `COC(=O)Nc1ccc(-c2cc3sc(C(C(=O)NCC(=O)NC4CC4)S(=O)(=O)c4ccc(F)cc4)nc3cc2F)cc1` (stereo not drawn) [Example 478, methyl N-{4-[2-({[(cyclopropyl-carbamoyl)methyl]carbamoyl}(4-fluorobenzene-sulfonyl)methyl)-5-fluoro-1,3-benzothiazol-6-yl]phenyl}carbamate] stands 2 nM.
On the same count and under the same terms, under `N#Cc1cccc(COC(=O)Nc2ccc(-c3cc4sc(C(C(=O)NCC(=O)NC5CC5)S(=O)(=O)C5CC5)nc4cc3F)cc2)c1` (stereo not drawn) [Example 521, (3-cyanophenyl) methyl N-(4-{2-[(cyclopropane-sulfonyl) ({[(cyclopropyl-carbamoyl)methyl]carbamoyl}methyl]-5-fluoro-1,3-benzothiazol-6-yl}phenyl) carbamate] stands 3 nM; under `O=C(CNC(=O)C(c1nc2cc(F)c(-c3ccc(NC(=O)NCc4ccccc4)cc3)cc2s1)S(=O)(=O)CCC(F)(F)F)NC1CC1` (stereo not drawn) [Example 511, 2-(6-{4-[(benzyl-carbamoyl)amino]phenyl}-5-fluoro-1,3-benzothiazol-2-yl)-N-[(cyclopropyl-carbamoyl)methyl]-2-(3,3,3-trifluoropropane-sulfonyl)acetamide], 1 nM.
The same measure, in the same setting: the result for `COc1ccc(-c2cc3nc(C(C(=O)NCC(=O)NC4CC4)S(C)(=O)=O)sc3cc2F)cn1` (stereo not drawn) [Example 366, N-[(cyclopropyl-carbamoyl)methyl]-2-[6-fluoro-5-(6-methoxypyridin-3-yl)-1,3-benzothiazol-2-yl]-2-methanesulfonyl-acetamide] reads 30 nM.

Staying with this assay, now noted: EL from conditioned media of HT-1080 cells; 30 min preincubation at 37° C.
Consider `O=C(CNC(=O)C(c1nc2ccc(-c3ccccc3)cc2s1)S(=O)(=O)c1ccccc1)NC1CC1` (stereo not drawn) [Example 430, 2-(Benzenesulfonyl)-N-[(cyclopropylcarbamoyl)methyl]-2-(6-phenyl-1,3-benzothiazol-2-yl)acetamide], for which half-maximal inhibition (IC50) required 6.6 nM.
